Assay results: patent US4868195A, “Novel enolamides, pharmaceutical compositions and methods of use thereof for activity as modulators of the arachidonic acid cascade” (Warner-Lambert Company, priority 1988, dated 1989)
Values joined by “and” are separate entries in the source; they are usually repeats but may differ in a detail not shown here. Equal values may be shown once.

The molecules below were run against T1, human leukocyte 5-lipoxygenase (Homo sapiens, UniProt P09917) (assay: 5-lipoxygenase inhibition in human leukocytes, 5-HETE formation (5LOA; methods 5LOA1 and 5LOA2)). Details: 5-HETE formation, human leukocytes; read-out: Concentration (M) for 50.0 % Inhibition, IC (5LOA).
T1 construct: endogenous in cells; host or cells: intact leukocytes isolated from human blood
T1 sequence (P09917 1-674): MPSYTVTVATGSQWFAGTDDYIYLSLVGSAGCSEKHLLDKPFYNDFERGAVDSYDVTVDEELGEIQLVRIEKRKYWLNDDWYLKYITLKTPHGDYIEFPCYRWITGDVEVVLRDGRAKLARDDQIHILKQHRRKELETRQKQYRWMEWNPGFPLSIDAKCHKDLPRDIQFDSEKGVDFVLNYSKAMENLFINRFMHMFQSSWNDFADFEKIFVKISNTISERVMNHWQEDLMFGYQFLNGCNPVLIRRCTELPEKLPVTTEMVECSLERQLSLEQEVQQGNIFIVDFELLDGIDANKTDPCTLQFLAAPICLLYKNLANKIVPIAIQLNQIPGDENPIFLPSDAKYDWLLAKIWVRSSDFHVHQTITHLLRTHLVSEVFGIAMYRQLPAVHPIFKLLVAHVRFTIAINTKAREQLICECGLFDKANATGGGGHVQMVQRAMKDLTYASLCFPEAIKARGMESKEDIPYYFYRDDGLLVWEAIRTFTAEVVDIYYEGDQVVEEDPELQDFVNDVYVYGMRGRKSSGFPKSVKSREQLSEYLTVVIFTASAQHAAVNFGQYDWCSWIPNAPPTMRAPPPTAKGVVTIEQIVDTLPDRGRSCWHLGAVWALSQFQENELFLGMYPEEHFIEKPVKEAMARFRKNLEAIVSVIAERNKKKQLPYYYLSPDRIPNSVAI
Assay type: cell-based
Text: To Evaluate the Effect of Each Compounds as a 5-Lipoxygenase Inhibitor in Comparison to Standard Reference Agents in Human Leukocytes (5LOA1)
The purpose of this assay is to evaluate the activity of each compound as an inhibitor of human leukocyte 5-lipoxygenase.
Arachidonic acid and calcium ionophore A23187 are obtained from Sigma (St. Louis, MO). Silica gel plates, GF are obtained from Analtech (Newark, DE). Arachidonic acid, (1-^14 C) and 5-HETE (^3 H), 5 (S)-hydroxy-6-trans,8,11,14-cis eicosatetraenoic acid, are obtained from New England Nuclear (Boston, MA). Six percent Dextran-70 in 0.9% NaCl is obtained from Cutter Labs (Berkeley, CA).
Preparation of Leukocytes
Fresh blood from normal adult men who had not received any drugs for at least the previous five days is obtained by the Community Research Clinic (WL/PD) using venipuncture and collected into heparinized vacuotainer tubes. To every 100 ml of pooled blood is added 25 ml of dextran solution (6% dextran -70 in 0.9% sodium chloride containing 3% dextrose) and this is mixed gently in a plastic cylinder. The mixture is left to stand at room temperature for at least 90 minutes. The upper layer which is rich in leukocytes and platelets is then carefully decanted into 50 ml plastic tubes and centrifuged at about 100×g for eight minutes in an IEC centrifuge and rotor number 269 (about 600 rpm). The supernatant fluid is discarded and the pellet is resuspended in 10 ml of 0.87% ammonium chloride for exactly two minutes. This procedure is to lyse completely contaminating red blood cells. Leukocytes are then separated by centrifugation for ten minutes. The pellet is washed three times by suspension in 20 ml PBS (sodium chloride, 7.1 g; Na2 HPO4, 1.15 g; KH2 PO4, 0.2 g, and KCl, 0.2 g/L) and centrifuged as before. The final pellet is suspended in PBS containing 0.87 mM CaCl2. Viability of the cells is then checked using trypan blue exclusion method and is found to be over 90%.
5-Lipoxygenase Enzyme Assay
Leukocyte cells in suspension (0.98 ml) are incubated with or without test compounds for five minutes at 37° C. in a shaking water bath. At this time a 17 μl mixture is prepared per 1 ml of cell suspension: 100 mM arachidonic acid, 1 μl, 0.05 μCi ^14 C-arachidonic acid in 5 μl; 1 mM calcium ionophore A23187, 10 μl (1). This mixture is added and the incubation continued for five minutes. The reaction is stopped by adding four volumes of absolute ethanol and the mixture is kept in ice for 30 minutes. The floculated precipitate is separated by centrifugation at about 37,000×g for 20 minutes (Beckman Instruments rotor number 40). The alcohol extract is taken to dryness under a stream of nitrogen and the residue is dissolved in 100-200 μl absolute ethanol. At the time any turbidity is removed by centrifugation. An aliquot (25-50 μl) is applied onto 20×20 cm silica gel TLC plate and developed using the following solvent system: diethyl ether, petroleum ether (2040° C.), acetic acid (50:50:1 v/v). Zones of 1 cm apart are scraped from the TLC plate and transferred to mini-vials. Methanol (0.5 ml) is added to dissolve the radioactivity adsorbed to the silica gel and scintillation fluid (H. P., Beckman), 5 ml is then added and vials are counted in a liquid scintillation counter. A sample of ^3 H-5-HETE is applied and used for the identification of the formed 5-HETE.
Total radioactivity in the test as well as the control samples are normalized and the amount of 5-HETE present is calculated accordingly.
IC50 values are defined as the concentrations of test agents which caused a 50% inhibition of the formation of 5-HETE as compared to control and are determined by inspection of the concentration-response curves.
5-Lipoxygenase Assay Using Isolated Human Leukocytes (5LOA2)
The formation of 5-HETE in human leukocytes is considered a measure of 5-lipoxygenase activity. The protocol is described in the following. […]

`O=C(Nc1ccc(C=Cc2ccc(Cl)c(Cl)c2)cc1)C1=C(O)c2ccccc2S(=O)(=O)C1` [Example 74, 2H-1-Benzothiopyran-3-carboxamide, N-[4-[2-(3,4-dichlorophenyl)ethenyl]phenyl]-4-hydroxy-, 1,1-dioxide] and `O=C(Nc1ccc(Cc2ccc(Cl)c(Cl)c2)cc1)C1=C(O)c2ccccc2S(=O)(=O)C1` [Example 78, 2H-1-Benzothiopyran-3-carboxamide, N-[4-[(3,4-dichlorophenyl)methyl]phenyl]-4-hydroxy-, 1,1-dioxide] are within 1.5-fold of each other in IC50: 9.3e-06 M for the first, 1.06e-05 M for the second.

First: COc1ccc(CCc2ccc(NC(=O)C3=C(O)c4ccccc4S(=O)(=O)C3)cc2)cc1OC [Example 18, N-[4-[2-(3,4-Dimethoxyphenyl)ethyl]phenyl]-4-hydroxy-2H-1-benzothiopyran-3-carboxamide, 1,1-dioxide]
Second: COc1ccc(CCc2ccc(NC(=O)c3sc4ccccc4c3O)cc2)cc1OC [Example 143, Benzo[b]thiophene-2-carboxamide, N-[4-[2-(3,4-dimethoxphenyl)ethyl]phenyl]-3-hydroxy]
The IC50 of the first is 2.6-fold higher: 1.35e-05 M for the first, 5.22e-06 M for the second.

Compared with `Cc1ccc(CCc2ccc(NC(=O)C3CS(=O)(=O)c4ccccc4C3=O)cc2)cc1C` (centres unmarked) [Example 53, N-[4-[2-(3,4-Dimethylphenyl)ethyl]phenyl]-3,4-dihydro-4-oxo-2H-1-benzothiopyran-3-carboxamide, 1,1-dioxide], `COc1ccc(CCc2ccc(NC(=O)C3CS(=O)(=O)c4ccccc4C3=O)cc2)cc1O` (centres unmarked) [Example 27, 3,4-Dihydro-N-[4-[2-(3-hydroxy-4-methoxyphenyl)ethyl]phenyl]-4-oxo-2H-1-benzothiopyran-3-carboxamide, 1,1-dioxide] is 4.7-fold higher in IC50: 3.8e-06 M for the first, 1.8e-05 M for the second. The first is the more potent here.

`COc1ccc(CCc2ccc(NC(=O)C3CS(=O)(=O)c4ccccc4C3=O)cc2)cc1` (centres unmarked) [Example 41] and `O=C(Nc1ccc(CCc2ccc(Cl)cc2)cc1)C1CS(=O)(=O)c2ccccc2C1=O` (centres unmarked) [Example 54, N-[4-[2-(4-Chlorophenyl)ethyl]phenyl]-3,4-dihydro-4-oxo-2H-1-benzothiopyran-3-carboxamide, 1,1-dioxide] are within 1.5-fold of each other in IC50: 7e-06 M for the first, 5.25e-06 M for the second.

Compared with `COc1cc(CCc2ccc(NC(=O)C(=O)c3sc4ccccc4c3O)cc2)ccc1O` [Example 142, Benzo[b]thiophene-2-acetamide, 3-hydroxy-N-[4-[2-(4-hydroxy-3-methoxyphenyl)ethyl]phenyl]-α-oxo-], `O=C(Nc1cccc(CCc2ccc(Cl)c(Cl)c2)c1)c1sc2ccccc2c1O` [Example 146, Benzo[b]thiophene-2-carboxamide, N-[3-[2-(3,4-dichlorophenyl)ethyl]phenyl]-3-hydroxy] is 1.5-fold lower in IC50: 6e-06 M for the first, 3.96e-06 M for the second. The second is the more potent here.

`O=C(Nc1ccc(CCCc2ccc(Cl)c(Cl)c2)cc1)C1=C(O)c2ccccc2S(=O)(=O)C1` [Example 79, 2H-1-Benzothiopyran-3-carboxamide, N-[4-[3-(3,4-dichlorphenyl)propyl]phenyl]-4-hydroxy-, 1,1-dioxide] and `O=C(Nc1cccc(CCc2ccc(Cl)c(Cl)c2)c1)C1=C(O)c2ccccc2S(=O)(=O)C1` [Example 76, 2H-1-Benzothiopyran-3-carboxamide, N-[3-[2-(3,4-dichlorophenyl)ethyl]phenyl]-4-hydroxy-, 1,1-dioxide] are within 1.5-fold of each other in IC50: 9.2e-06 M for the first, 1.1e-05 M for the second.

First: O=C(Nc1ccc(CCc2ccccc2)cc1)C1CS(=O)(=O)c2ccccc2C1=O (centres unmarked) [Example 16, 3,4-Dihydro-4-oxo-N-[(4-(2-phenyl)ethyl]-phenyl]-2H-1-benzothiopyran-3-carboxamide, 1,1-dioxide]
Second: O=C(Nc1ccc(CCc2ccc(-c3ccccc3)cc2)cc1)C1CS(=O)(=O)c2ccccc2C1=O (centres unmarked) [Example 46, N-[4-[2-([1,1'-biphenyl]-4-yl)ethyl]phenyl]-3,4-dihydro-4-oxo-2H-1-benzothiopyran-3-carboxamide, 1,1-dioxide]
The IC50 of the first is 1.6-fold higher: 1.77e-05 M for the first, 1.1e-05 M for the second.

Compared with `O=C(Nc1ccc(CCc2ccc3ccccc3c2)cc1)C1=C(O)c2ccccc2S(=O)(=O)C1` [Example 51, 4-Hydroxy-N-[4-[2-(2-naphthalenyl)ethyl]phenyl]-2H-1-benzothiopyran-3-carboxamide, 1,1-dioxide], `O=C(Nc1ccccc1CCCc1ccc(Cl)c(Cl)c1)C1=C(O)c2ccccc2S(=O)(=O)C1` [Example 80, 2H-1-Benzothiopyran-3-carboxamide, N-[2-[3-(3,4-dichlorophenyl)propyl]phenyl]-4-hydroxy-, 1,1-dioxide] is 4.8-fold higher in IC50: 2.12e-06 M for the first, 1.01e-05 M for the second. The first is the more potent here.

`O=C(Nc1ccc(CCc2c(F)c(F)c(F)c(F)c2F)cc1)C1=C(O)c2ccccc2S(=O)(=O)C1` [Example 64, N-[4-[2-(2,3,4,5,6-Pentafluorophenyl)ethyl]phenyl]-4-hydroxy-2H-1-benzothiopyran-3-carboxamide, 1,1-dioxide] and `O=C(Nc1ccc(C=Cc2ccc([N+](=O)[O-])cc2)cc1)C1CS(=O)(=O)c2ccccc2C1=O` (centres unmarked) [Example 67, 2H-1-Benzothiopyran-3-carboxamide, 3,4-dihydro-N-[4-[2-(4-nitrophenyl)ethenyl]phenyl]-4-oxo-, 1,1-dixide] are within 1.5-fold of each other in IC50: 1.19e-05 M for the first, 1.17e-05 M for the second.

`CCCCOc1ccc(CCc2ccc(NC(=O)C3CS(=O)(=O)c4ccccc4C3=O)cc2)cc1` (centres unmarked) [Example 48] was tested, and the IC50 was 1.59e-05 M and 1.91e-05 M.
For `O=C(Nc1ccc(CCc2cccc3ccccc23)cc1)C1=C(O)c2ccccc2S(=O)(=O)C1` [Example 73, 2H-1-Benzothiopyran-3-carboxamide, 4-hydroxy-N-[4-[2-(1-naphthalenyl)ethyl]phenyl], 1,1-dioxide], the IC50 was 4.09e-06 M and 8.2e-06 M.

Same assay, conditions: Concentration 1.00 E -5 M

In the case of `CCCCCCCCCCc1ccc(NC(=O)C2CS(=O)(=O)c3ccccc3C2=O)cc1` (centres unmarked) [Example 60, N-(4-Decylphenyl)-3,4-dihydro-4-oxo-2H-1-benzoothiopyran-3-carboxamide, 1,1-dioxide], the “% Inhibition (5LOA)” value was 25.2%.

Same assay, conditions: Concentration 2.00 E -5 M

`CCCCCCCCCCc1ccc(NC(=O)C2CS(=O)(=O)c3ccccc3C2=O)cc1` (centres unmarked) [Example 60, N-(4-Decylphenyl)-3,4-dihydro-4-oxo-2H-1-benzoothiopyran-3-carboxamide, 1,1-dioxide] was tested, and the “% Inhibition (5LOA)” value was 21.7%.

Same assay, conditions: Concentration 5.00 E -6 M

With `CCCCCCCCCCc1ccc(NC(=O)C2CS(=O)(=O)c3ccccc3C2=O)cc1` (centres unmarked) [Example 60, N-(4-Decylphenyl)-3,4-dihydro-4-oxo-2H-1-benzoothiopyran-3-carboxamide, 1,1-dioxide] the “% Inhibition (5LOA)” value was 7.9%.
